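Grown in 96-well plates, cells were treated for 48 hours with each compound at five concentrations. Insufficient inhibition: endpoint recorded as highest concentration tested. GI50: concentration for 50% inhibition of growth.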 Activity calls are given as the source filed them. Rule as the data show it: active = GI50 up to about 1.1 µM and inactive = higher.
Columns and labels:
Assay in all cases: growth of human tumour cells (NCI), 48 h
CAKI-1 = tested on: CAKI-1
OVCAR-5 = tested on: OVCAR-5
HOP-92 = tested on: HOP-92
LOX IMVI = tested on: LOX IMVI
NCI-H460 = tested on: NCI-H460
MDA-MB-435 = tested on: MDA-MB-435
SF-268 = tested on: SF-268
NCI-H23 = tested on: NCI-H23
Hs-578T = tested on: Hs-578T
OVCAR-3 = tested on: OVCAR-3
OVCAR-4 = tested on: OVCAR-4
SNB-19 = tested on: SNB-19
COLO 205 = tested on: COLO 205
SK-MEL-28 = tested on: SK-MEL-28
RPMI-8226 = tested on: RPMI-8226
OVCAR-8 = tested on: OVCAR-8
SK-MEL-2 = tested on: SK-MEL-2
UO-31 = tested on: UO-31
T47D = tested on: T47D
HT-29 = tested on: HT-29

## Cc1c(N2C(=O)/C(=C/c3ccc(N(CCC#N)CCC#N)cc3)N=C2c2ccccc2)c(=O)n(-c2ccccc2)n1C
CAKI-1
  GI50: > 100 µM (inactive)
OVCAR-5
  GI50: > 100 µM (inactive)
HOP-92
  GI50: > 100 µM (inactive)
LOX IMVI
  GI50: > 100 µM (inactive)
NCI-H460
  GI50: > 100 µM (inactive)
MDA-MB-435
  GI50: > 100 µM (inactive)
SF-268
  GI50: > 100 µM (inactive)
NCI-H23
  GI50: > 100 µM (inactive)
Hs-578T
  GI50: > 100 µM (inactive)
OVCAR-3
  GI50: > 100 µM (inactive)
OVCAR-4
  GI50: > 100 µM (inactive)
SNB-19
  GI50: > 100 µM (inactive)
COLO 205
  GI50: > 100 µM (inactive)
SK-MEL-28
  GI50: > 100 µM (inactive)
RPMI-8226
  GI50: > 100 µM (inactive)
OVCAR-8
  GI50: > 100 µM (inactive)
SK-MEL-2
  GI50: > 100 µM (inactive)
UO-31
  GI50: > 100 µM (inactive)
T47D
  GI50: > 100 µM (inactive)
HT-29
  GI50: > 100 µM (inactive)

## COc1ccc(/C=C2\CCC/C(=C\c3ccc(O)c(CN4CCCCC4)c3)C2=O)cc1
CAKI-1
  GI50: 11.1 µM (inactive)
OVCAR-5
  GI50: 22.5 µM (inactive)
HOP-92
  GI50: 9.79 µM (inactive)
LOX IMVI
  GI50: 2.82 µM (inactive)
NCI-H460
  GI50: 4.98 µM (inactive)
MDA-MB-435
  GI50: 3.1 µM (inactive)
SF-268
  GI50: 3.31 µM (inactive)
NCI-H23
  GI50: 4.93 µM (inactive)
Hs-578T
  GI50: 11.5 µM (inactive)
OVCAR-3
  GI50: 10.8 µM (inactive)
OVCAR-4
  GI50: 22.2 µM (inactive)
SNB-19
  GI50: 23.4 µM (inactive)
COLO 205
  GI50: 8.09 µM (inactive)
SK-MEL-28
  GI50: 11.3 µM (inactive)
RPMI-8226
  GI50: 3.89 µM (inactive)
OVCAR-8
  GI50: 2.81 µM (inactive)
SK-MEL-2
  GI50: 11.2 µM (inactive)
UO-31
  GI50: 6.75 µM (inactive)
T47D
  GI50: 19.3 µM (inactive)
HT-29
  GI50: 2.3 µM (inactive)

## COC1(OC)c2no[n+]([O-])c2CCC1O (stereo not given)
CAKI-1
  GI50: > 100 µM (inactive)
OVCAR-5
  GI50: > 100 µM (inactive)
HOP-92
  GI50: 0.0255 µM (active)
LOX IMVI
  GI50: > 100 µM (inactive)
NCI-H460
  GI50: > 100 µM (inactive)
MDA-MB-435
  GI50: > 100 µM (inactive)
SF-268
  GI50: > 100 µM (inactive)
NCI-H23
  GI50: > 100 µM (inactive)
Hs-578T
  GI50: > 100 µM (inactive)
OVCAR-3
  GI50: > 100 µM (inactive)
OVCAR-4
  GI50: > 100 µM (inactive)
SNB-19
  GI50: > 100 µM (inactive)
COLO 205
  GI50: > 100 µM (inactive)
SK-MEL-28
  GI50: > 100 µM (inactive)
RPMI-8226
  GI50: > 100 µM (inactive)
OVCAR-8
  GI50: > 100 µM (inactive)
SK-MEL-2
  GI50: > 100 µM (inactive)
UO-31
  GI50: > 100 µM (inactive)
T47D
  GI50: > 100 µM (inactive)
HT-29
  GI50: > 100 µM (inactive)

## CC[C@@H]1CC[C@@H]2[C@H](CC[C@]3(C)[C@@H](O)CC[C@@H]23)[C@H]1CO
CAKI-1
  GI50: > 100 µM (inactive)
OVCAR-5
  GI50: > 100 µM (inactive)
HOP-92
  GI50: > 100 µM (inactive)
LOX IMVI
  GI50: > 100 µM (inactive)
NCI-H460
  GI50: > 100 µM (inactive)
MDA-MB-435
  GI50: 66.1 µM (inactive)
SF-268
  GI50: > 100 µM (inactive)
NCI-H23
  GI50: > 100 µM (inactive)
Hs-578T
  GI50: > 100 µM (inactive)
OVCAR-3
  GI50: > 100 µM (inactive)
OVCAR-4
  GI50: 71 µM (inactive)
SNB-19
  GI50: > 100 µM (inactive)
COLO 205
  GI50: 79.8 µM (inactive)
SK-MEL-28
  GI50: > 100 µM (inactive)
RPMI-8226
  GI50: 67 µM (inactive)
OVCAR-8
  GI50: > 100 µM (inactive)
SK-MEL-2
  GI50: > 100 µM (inactive)
UO-31
  GI50: > 100 µM (inactive)
T47D
  GI50: 70.5 µM (inactive)
HT-29
  GI50: 39.3 µM (inactive)

## CCOC(=O)c1cc(C2CCN(Cc3ccccc3)C2=O)c(C(=O)C(=[N+]=[N-])C(C)=O)[nH]1 (stereo not given)
CAKI-1
  GI50: > 100 µM (inactive)
OVCAR-5
  GI50: > 100 µM (inactive)
HOP-92
  GI50: > 100 µM (inactive)
LOX IMVI
  GI50: > 100 µM (inactive)
NCI-H460
  GI50: > 100 µM (inactive)
MDA-MB-435
  GI50: > 100 µM (inactive)
SF-268
  GI50: > 100 µM (inactive)
NCI-H23
  GI50: > 100 µM (inactive)
Hs-578T
  GI50: > 100 µM (inactive)
OVCAR-3
  GI50: > 100 µM (inactive)
OVCAR-4
  GI50: > 100 µM (inactive)
SNB-19
  GI50: > 100 µM (inactive)
COLO 205
  GI50: > 100 µM (inactive)
SK-MEL-28
  GI50: > 100 µM (inactive)
RPMI-8226
  GI50: > 100 µM (inactive)
OVCAR-8
  GI50: > 100 µM (inactive)
SK-MEL-2
  GI50: > 100 µM (inactive)
UO-31
  GI50: > 100 µM (inactive)
T47D
  GI50: > 100 µM (inactive)
HT-29
  GI50: > 100 µM (inactive)

## O=P1(Cc2ccccc2)c2ccccc2-c2ccccc21
CAKI-1
  GI50: 21.7 µM (inactive)
OVCAR-5
  GI50: 12.1 µM (inactive)
HOP-92
  GI50: 0.376 µM (active)
LOX IMVI
  GI50: 4.74 µM (inactive)
NCI-H460
  GI50: 4.04 µM (inactive)
MDA-MB-435
  GI50: 0.764 µM (active)
SF-268
  GI50: 9.12 µM (inactive)
NCI-H23
  GI50: 3.86 µM (inactive)
Hs-578T
  GI50: 7.05 µM (inactive)
OVCAR-3
  GI50: 1.06 µM (active)
OVCAR-4
  GI50: 11 µM (inactive)
SNB-19
  GI50: 3.69 µM (inactive)
COLO 205
  GI50: 2.63 µM (inactive)
SK-MEL-28
  GI50: 4.13 µM (inactive)
RPMI-8226
  GI50: 0.65 µM (active)
OVCAR-8
  GI50: 4.4 µM (inactive)
SK-MEL-2
  GI50: 2.18 µM (inactive)
UO-31
  GI50: 20.6 µM (inactive)
T47D
  GI50: 0.0658 µM (active)
HT-29
  GI50: 2.37 µM (inactive)
